From paper PMC12668308, “A Novel Antimalarial Agent that Inhibits Protein Synthesis in Plasmodium falciparum” (Angewandte Chemie (International Ed. in English), 2025)
Like-named read-outs stand apart in the source and are kept apart here.

Key:
[1] = tested on: P. falciparum NF54 strain; assay: [3H]-hypoxanthine incorporation assay, asexual blood stage; type: cell-based, Plasmodium falciparum; conditions: Plasmodium falciparum
Description: (§1) P. falciparum asexual blood stage parasites were cultured in human red blood cells (RBC, Blutspende SRK, Zurich) at a hematocrit of 5% in RPMI 1640 medium. The RPMI 1640 medium (ThermoFisher Scientific #51800−043) was supplemented with the following: 24 mM NaHCO3 (pH 7.3, Sigma-Aldrich #31437−500G-R), 25 mM Hepes (Sigma-Aldrich #H4034−500G), 0.36 mM hypoxanthine (Sigma-Aldrich # H9377−25G), 100 µg mL^-1 neomycin (Sigma-Aldrich #N6386−100G) and 0.5% Albumax II (Thermo Fisher #11021−045). Additionally, 2 mM choline chloride (279 mg/L, Sigma-Aldrich #C7527−100G) was added to the culture to block the induction of sexual commitment as described. ^[31^] The RPMI 1640 medium and components were dissolved in water (Milli-Q purified), stirred for at least 3 h, and then sterile filtered (0.22 μm pore size) with a bottle top filter (Corning # 431118). Parasite cultures were maintained in an atmosphere of 3% O2, 4% CO2, and 93% N2 in air-tight chambers at 37 °C. The [^3H]-hypoxanthine incorporation assay was used to test compound activity in the specific parasite lines as described.^[32^] Briefly, compounds were dissolved in DMSO (10 mM) and diluted in a hypoxanthine-free culture medium. A limiting dilution was performed over a 64-fold range (6-step twofold dilution) in a 96-well plate in duplicates. For every starting concentration, a limiting dilution was performed over a 64-fold range (6-step twofold dilution) in a 96-well plate in two biological duplicates. Parasites were added at 100 µL to each well containing the compound to obtain a final parasitemia of 0.3% and haematocrit of 1.25%. The plates were incubated for 48 h before 0.25 µCi of [^3H]-hypoxanthine was added per well for an additional 24 h. Parasites were harvested on a glass-fiber filter with a Microbeta FilterMate cell harvester (Perkin Elmer, Waltham, USA) and radioactivity was counted using a MicroBeta2 liquid scintillation counter (Perkin Elmer, Waltham, US). […] The fifty percent inhibitory concentration (IC50) was calculated by using nonlinear, four parameter (variable slope) curve fitting as described ^[33^] after importing into GraphPad Prism (version 8.3.0).

[2] = tested on: Dd2 DDD107458 (Dd2 + pfeEF2); assay: [3H]-hypoxanthine incorporation assay; type: cell-based, Plasmodium falciparum; conditions: Plasmodium falciparum, DD2, 72 h
Description: (§2) ^[a]72-h [^3H] hypoxanthhine incorporation assay. Data is expressed as mean±s.d..
(§3) P. falciparum asexual blood stage parasites were cultured in human red blood cells (RBC, Blutspende SRK, Zurich) at a hematocrit of 5% in RPMI 1640 medium. The RPMI 1640 medium (ThermoFisher Scientific #51800−043) was supplemented with the following: 24 mM NaHCO3 (pH 7.3, Sigma-Aldrich #31437−500G-R), 25 mM Hepes (Sigma-Aldrich #H4034−500G), 0.36 mM hypoxanthine (Sigma-Aldrich # H9377−25G), 100 µg mL^-1 neomycin (Sigma-Aldrich #N6386−100G) and 0.5% Albumax II (Thermo Fisher #11021−045). Additionally, 2 mM choline chloride (279 mg/L, Sigma-Aldrich #C7527−100G) was added to the culture to block the induction of sexual commitment as described. ^[31^] The RPMI 1640 medium and components were dissolved in water (Milli-Q purified), stirred for at least 3 h, and then sterile filtered (0.22 μm pore size) with a bottle top filter (Corning # 431118). Parasite cultures were maintained in an atmosphere of 3% O2, 4% CO2, and 93% N2 in air-tight chambers at 37 °C. The [^3H]-hypoxanthine incorporation assay was used to test compound activity in the specific parasite lines as described.^[32^] Briefly, compounds were dissolved in DMSO (10 mM) and diluted in a hypoxanthine-free culture medium. A limiting dilution was performed over a 64-fold range (6-step twofold dilution) in a 96-well plate in duplicates. For every starting concentration, a limiting dilution was performed over a 64-fold range (6-step twofold dilution) in a 96-well plate in two biological duplicates. Parasites were added at 100 µL to each well containing the compound to obtain a final parasitemia of 0.3% and haematocrit of 1.25%. The plates were incubated for 48 h before 0.25 µCi of [^3H]-hypoxanthine was added per well for an additional 24 h. Parasites were harvested on a glass-fiber filter with a Microbeta FilterMate cell harvester (Perkin Elmer, Waltham, USA) and radioactivity was counted using a MicroBeta2 liquid scintillation counter (Perkin Elmer, Waltham, US). The results were recorded, processed by subtraction of the mean background signal obtained from the uninfected RBC controls and expressed as percentage of untreated controls. The fifty percent inhibitory concentration (IC50) was calculated by using nonlinear, four parameter (variable slope) curve fitting as described ^[33^] after importing into GraphPad Prism (version 8.3.0).

[3] = tested on: Dd2 DSM265 (Dd2 + pfdhodh); assay: [3H]-hypoxanthine incorporation assay; type: cell-based, Plasmodium falciparum; conditions: Plasmodium falciparum, 72 h
Description: as §2, §3

[4] = tested on: Dd2 ELQ300 (Dd2 + pfcytb); assay: [3H]-hypoxanthine incorporation assay; type: cell-based, Plasmodium falciparum; conditions: Plasmodium falciparum, DD2, 72 h
Description: as §2, §3

[5] = tested on: Dd2 Fosmidomycin (Dd2 + pfdxr); assay: [3H]-hypoxanthine incorporation assay; type: cell-based, Plasmodium falciparum; conditions: Plasmodium falciparum, DD2, 72 h
Description: as §2, §3

[6] = tested on: Dd2 GNF156 (Dd2 + pfcarl); assay: [3H]-hypoxanthine incorporation assay; type: cell-based, Plasmodium falciparum; conditions: Plasmodium falciparum, DD2, 72 h
Description: as §2, §3

[7] = tested on: Dd2 MMV390048 (Dd2 + pfpI4k); assay: [3H]-hypoxanthine incorporation assay; type: cell-based, Plasmodium falciparum; conditions: Plasmodium falciparum, DD2, 72 h
Description: as §2, §3

[8] = tested on: Dd2 NITD609 (Dd2 + pfatp4); assay: [3H]-hypoxanthine incorporation assay; type: cell-based, Plasmodium falciparum; conditions: Plasmodium falciparum, DD2, 72 h
Description: as §2, §3

[9] = tested on: P. falciparum Dd2; assay: [3H]-hypoxanthine incorporation assay; type: cell-based, Plasmodium falciparum; conditions: Plasmodium falciparum, DD2, 72 h
Description: as §2, §3

[10] = tested on: P. falciparum K1; assay: [3H]-hypoxanthine incorporation assay; type: cell-based, Plasmodium falciparum; conditions: Plasmodium falciparum; K1; 72-h assay; mean±s.d.; read-out: IC50
Description: as §2, §3

[11] = tested on: Dd2b2^31-R1.1; assay: [3H]-hypoxanthine incorporation assay; type: cell-based, Plasmodium falciparum; conditions: Plasmodium falciparum, read-out: mean IC50 value ± s.d.
Description: as §1
(§4) 31 was used for resistance selection studies using the strain Dd2b2 (kindly provided by David Fidock). Resistance selection was done as described in ^[34^]. As summarized in Table S3, an initial inoculum of 2 x 10^9 asexual blood stage parasites (at 2-2.5% parasitemia) were cultured in three independent flasks. […] Cloning via limiting dilution was performed to obtain resistant clones for further characterization as described in section 2.2.5.

[12] = tested on: Dd2b2^31-R1.2; assay: [3H]-hypoxanthine incorporation assay; type: cell-based, Plasmodium falciparum; conditions: Plasmodium falciparum, read-out: mean IC50 value ± s.d.
Description: as §1, §4

[13] = tested on: Dd2b2^31-R2.1; assay: [3H]-hypoxanthine incorporation assay; type: cell-based, Plasmodium falciparum; conditions: Plasmodium falciparum, read-out: mean IC50 value ± s.d.
Description: as §1, §4

[14] = tested on: Dd2b2^31-R3.1; assay: [3H]-hypoxanthine incorporation assay; type: cell-based, Plasmodium falciparum; conditions: Plasmodium falciparum, read-out: mean IC50 value ± s.d.
Description: as §1, §4

[15] = tested on: Dd2b2^WT; assay: [3H]-hypoxanthine incorporation assay; type: cell-based, Plasmodium falciparum; conditions: Plasmodium falciparum, 72 h, read-out: Parent (Dd2b2^WT) IC50
Description: as §1, §4

[16] = tested on: 3D7^WT; assay: [3H]-hypoxanthine incorporation assay; type: cell-based; conditions: Plasmodium falciparum, 3D7; 72-h assay; mean±s.d.; read-out: 3D7^WT IC50
Description: (§5) ^[a] 72-h [^3H] hypoxanthhine incorporation assay; Data is expressed as mean±s.d.. The assay was performed in three independent biological experiments, each in biological duplicates.
as §3

[17] = tested on: Dd2b2^pfmdr1 G182S; type: cell-based, Plasmodium falciparum; conditions: Dd2b2^pfmdr1 G182S vs Dd2b2^WT
Description: (§6) ^[a] 72-h [^3H] hypoxanthhine incorporation assay; Data is expressed as mean±s.d. The assay was performed in three independent biological experiments, each in biological duplicates
as §1

[18] = tested on: Dd2b2^pfmdr1 K1065N; type: cell-based, Plasmodium falciparum; conditions: Dd2b2^pfmdr1 K1065N vs Dd2b2^WT
Description: as §6, §3

[19] = tested on: 3D7^Cas9 pfmdr1 G182S; type: cell-based, Plasmodium falciparum; conditions: 3D7^Cas9 pfmdr1 G182S vs 3D7^WT
Description: as §5, §3
The P. falciparum 3D7 wild type parasites in the ring stage were transfected as described.^[20] Infected RBCs collected from a 5 ml culture of synchronous ring stage parasites (5-6% parasitemia at ) were added to 250 µl of packed RBCs and were co-transfected with 50µg of Cas9 and 50 µg of donor plasmids using a Bio-Rad Gene Pulser Xcell Electroporation System (single exponential pulse, 310 V, 250 µF). 24 hours post-transfection, 5 nM WR99210 (MedChemExpress #HY-116387) was added to the culture medium for six days to select for gene-edited parasites, and henceforth parasites were maintained in normal culture medium until a stably propagating parasite population was obtained. After ~4 weeks post-transfection, stably propagating parasite population were obtained. The transgenic parasite line (3D7^pfmdr1 G182S) was cloned out using an established plaque assays via limiting dilution.^[35^] […]

[20] = tested on: mRNA translation in NF54 trophozoite-stage parasites; assay: Surface sensing of translation (SUnSET) assay; type: cell-based, Plasmodium falciparum; conditions: trophozoites 30–35 hpi; 31 at 3x, 50x, 100x IC50; 34 and pyrimethamine at 3x IC50
Description: To confirm the role of 31 as a translation inhibitor, the surface sensing of translation (SUnSET) assay was employed. This involves incubating the culture with a translation inhibitor, puromycin, a structural analogue of aminoacyl tRNA. Puromycin is incorporated in the nascent polypeptide chain and prevents further elongation. When puromcyin is used in sub‐lethal concentrations, incorporation of puromycin in neosynthesized protein correlates with the levels of mRNA translation (Figure 3c, lane2).^[ [27] ^] […] This trend was further confirmed by the quantified western blot signals (Figures 3d and S4C) that are consistent with the iSPP profiling results.
SUnSET: The SUnSET assay was done as described in. ^[27^]Tightly synchronized NF54 wild type parasites were treated with the compounds for 4h at 30-35 hpi (trophozoite stage). The following compounds and amounts used were: cycloheximide (3xIC50, 1,2 µM; Calbiochem), pyrimethamine (3xIC50, 21 nM; MedChemExpress), 34 (3xIC50, 12 µM), and 31 (3xIC50, 12 nM; 50xIC50, 200 nM; 100xIC50, 400 nM). Parasites were incubated with 1 µg mL^-1 (Sigma P8833) for 1 h at 37 °C and saponin lysis was performed.
Saponin lysis and Western blot: Saponin lysis was done on infected RBC at ~5% parasitemia to lyse erythrocytes. Parasite cultures were centrifuged at 1,200 g for 5 min at room temperature. Once the supernatant was discarded, 10 volumes of ice-cold 0.1% (w/v) saponin (Calbiochem 558255, dissolved in PBS, and filtered with 0,22) was added, incubated on ice for 10 min and centrifuged for 2,272 g for 15 min at 4 °C. […] The membrane was washed 3 times in PBS-T (3 min incubation in each washing step) and the signal was detected using the chemiluminescent substrate SuperSignal West Pico Plus (Thermo Scientific, REF 34580) and the imaging system Vilber Fusion FX7 Edge 17.10 SN. Quantification of Western blot signal was done by measuring the integrated density of each lane using ImageJ analysis software (version 1.54p). […]

C[C@H]1[C@H](OC(=O)CCC(=O)O)O[C@@H]2O[C@@]3(C)CC[C@H]4[C@H](C)CC[C@@H]1[C@@]24OO3 [Artesunate, artesunate, reference compound]
IC50 ([1]; NF54, 72 h, Table S2, NF54 sensitive strain, 72-h assay, mean±s.d., read-out: IC50): 0.4 ± 0.07 nM | IC50 [2]: 0.2 ± 0.2 nM | IC50 [3]: 0.2 ± 0.01 nM | IC50 [4]: 0.2 ± 0.01 nM | IC50 [5]: 0.2 ± 0.01 nM | IC50 [6]: 0.2 ± 0.02 nM | IC50 [7]: 0.3 ± 0.1 nM | IC50 [8]: 0.2 ± 0.01 nM | IC50 [9]: 0.3 ± 0.2 nM | IC50 [10]: 0.2 ± 0.01 nM | IC50 [11]: 1.6 ± 0.3 nM | IC50 [12]: 2.2 ± 0.6 nM | IC50 [13]: 2.6 ± 1.5 nM | IC50 [14]: 1.2 ± 0.6 nM | IC50 [15]: 0.5 ± 0.1 nM | IC50 [16]: 0.6 ± 0.1 nM

CCN(CC)Cc1ccc(O)c(NC(=O)c2cccc(Oc3cc(C(F)(F)F)ccn3)c2)c1 [Compound 27, N-(5-((diEthylamino)methyl)-2-hydroxyphenyl)-3-((4-(trifluoromethyl)pyridin-2-yl)oxy)benzamide]
IC50 ([1]; NF54, asexual blood stage, mean ± s.d., read-out: PfNF54 IC50 ± s.d.): 11 ± 3.4 nM | IC50 [15]: 3.5 ± 0.7 nM | IC50 fold shift relative to parental clone [17]: 10.6 | IC50 fold shift relative to parental clone [18]: 9.4 | IC50 [16]: 2.2 ± 0.2 nM | IC50 fold shift relative to 3D7^WT strain [19]: 1.5

CCc1nc(N)nc(N)c1-c1ccc(Cl)cc1 [Pyrimethamine, reference compound]
mRNA translation (puromycin incorporation) [20]: did not reduce mRNA translation
